Earlier results on two compounds are cited in US20170304164A1, “COMPOSITIONS, APPARATUS AND METHODS FOR MONITORING AND IMPROVING ORAL HEALTH” (Berkeley NOX Limited, priority 2016, published 2017).

The test system of one data set is Desulfovibrio spp. The settings on record: 0.2 mM nitrate.
In a further data set the test system is Streptococcus mutans. The following applies: 0.2 mM nitrite, acidity levels below pH 7.
For a further data set, the system named is Fusobacterium nucleatum. The settings on record: under acidic conditions.
The next data set relates to Eikenella corrodens. The settings on record: under acidic conditions.
A further data set deals with Porphyromonas gingivalis. The settings on record: under acidic conditions.

Consider `O=[N+]([O-])O` [nitrate], for which the growth entry in the data set on Desulfovibrio spp. is on record as “growth is inhibited”.

As to `O=NO` [nitrite], in the data set on Streptococcus mutans, the effect on bacteria entry was “effective complete killing”. Besides, the growth entry with Fusobacterium nucleatum, in the data set on Eikenella corrodens and in the data set with Porphyromonas gingivalis was “inhibited the growth” throughout.
